{"source": "paper PMC10036551", "about": "“Genome mining unveils a class of ribosomal peptides with two amino termini” (Nature Communications, 2023)", "type": "physicochemical", "protocol": "The HPLC-purified products were analyzed by high-resolution mass spectrometry and tandem mass spectrometry (HR-MS/MS). […] Considering the predicted functions of genes encoded by the mpa BGC, we proposed that Thr underwent conversion to Dmp. To evaluate this hypothesis, a sufficient amount of 1 was accumulated for structure determination, due to its higher post-purification yield than 2 and 3. […] NMR analyses (^1H, ^13C, ^1H-^1H COSY, ^1H-^13C HSQC and ^1H-^13C HMBC) were then conducted in HFIP-d2 and a substructure corresponding to Dmp was deduced.", "note": "Residues, ends and D or L forms follow the SMILES beside them. *: point of attachment. X1 = C[C@@H](CN*)N(C)C"}
{"smiles": "CC[C@H](C)[C@H](NC(=O)CNC(=O)[C@@H](NC(=O)[C@H](CC(C)C)NC(=O)[C@@H](NC(=O)[C@H](CC(C)C)NC(=O)[C@H](C)NC(=O)CNC(=O)[C@@H](NC(=O)[C@@H](NC(=O)CNC(=O)[C@H](CCC(N)=O)NC(=O)[C@H](Cc1ccc(O)cc1)NC(=O)[C@H](Cc1ccccc1)NC(=O)[C@H](CO)NC(=O)[C@H](CC(=O)O)NC(=O)[C@H](Cc1c[nH]c2ccccc12)NC(=O)[C@@H](N)CO)C(C)C)[C@@H](C)CC)C(C)C)[C@@H](C)CC)C(=O)NCC(=O)N[C@@H](C)C(=O)N[C@@H](C)C(=O)N[C@@H](C)C(=O)N[C@@H](C)C(=O)NC[C@H](C)N(C)C", "note": "[compound 1] (H-SWDSFYQGVIGALVLIGIGAAAA-X1)", "values": [{"measurement": "solubility in commonly used NMR solvents", "value": "only sparingly soluble"}, {"measurement": "solubility in hexafluoroisopropanol (HFIP)", "value": "highly soluble"}]}
